Results reported in ChEMBL document CHEMBL1201862, “PubChem BioAssay data set” (2004).
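Growth conditions: 96-well plates. Treatment: test compound, 48 hours, 5 concentrations. Analysis: linear interpolation between bracketing concentrations; unreached endpoints set to highest concentration. The concentration for 50% growth inhibition is given as GI50.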 Calls of active or inactive are those of the source. Rule as the data show it: active = GI50 up to about 1.1 µM and inactive = higher.

Experiments:
Assay in all cases: NCI anticancer screen, dose series, 48 h
NCI/ADR-RES = tested on: NCI/ADR-RES
SF-295 = tested on: SF-295
SF-539 = tested on: SF-539
MDA-MB-231 = tested on: MDA-MB-231
A549 = tested on: A549
U-251 = tested on: U-251
SNB-19 = tested on: SNB-19
HT-29 = tested on: HT-29
NCI-H522 = tested on: NCI-H522
RXF 393 = tested on: RXF 393
SK-MEL-28 = tested on: SK-MEL-28
SR = tested on: SR
A498 = tested on: A498
NCI-H460 = tested on: NCI-H460
DU-145 = tested on: DU-145
Hs-578T = tested on: Hs-578T
HOP-92 = tested on: HOP-92
HCT-116 = tested on: HCT-116
MOLT-4 = tested on: MOLT-4

Measured: GI50

CC(Cc1ccc(O)cc1)NCC(O)c1ccc(O)c(O)c1 (stereo unspecified)
inactive: NCI/ADR-RES > 100 µM | SF-295 > 100 µM | SF-539 > 100 µM | MDA-MB-231 3.35 µM | A549 > 100 µM | U-251 > 100 µM | SNB-19 > 100 µM | HT-29 > 100 µM | NCI-H522 > 100 µM | RXF 393 > 100 µM | SK-MEL-28 > 100 µM | SR 88.3 µM | A498 > 100 µM | NCI-H460 > 100 µM | DU-145 > 100 µM | Hs-578T > 100 µM | HOP-92 > 100 µM | HCT-116 > 100 µM | MOLT-4 73.5 µM

CC(C)(C)Nc1noc(=O)n1C(C)(C)C
inactive: NCI/ADR-RES > 100 µM | SF-295 > 100 µM | SF-539 > 100 µM | MDA-MB-231 > 100 µM | A549 > 100 µM | U-251 > 100 µM | SNB-19 > 100 µM | HT-29 > 100 µM | NCI-H522 > 100 µM | RXF 393 > 100 µM | SK-MEL-28 > 100 µM | SR > 100 µM | A498 > 100 µM | NCI-H460 > 100 µM | DU-145 > 100 µM | Hs-578T > 100 µM | HOP-92 > 100 µM | HCT-116 > 100 µM | MOLT-4 > 100 µM

C[C@@H]1CC[C@@]2(C)C(C(=O)O)=CCCC2[C@@]1(C)CC(=O)c1ccoc1 (stereo partly specified)
inactive: NCI/ADR-RES > 25 µM | SF-295 > 25 µM | SF-539 > 25 µM | MDA-MB-231 > 25 µM | A549 > 25 µM | U-251 > 25 µM | SNB-19 > 25 µM | HT-29 > 25 µM | NCI-H522 > 25 µM | RXF 393 > 25 µM | SK-MEL-28 > 25 µM | SR > 25 µM | A498 > 25 µM | NCI-H460 > 25 µM | DU-145 > 25 µM | Hs-578T > 25 µM | HOP-92 > 25 µM | HCT-116 > 25 µM | MOLT-4 > 25 µM

CCOC(=O)C(O)(C(=O)OCC)c1cc(C(C)(C)C)c(O)c(C(C)(C)C)c1
inactive: NCI/ADR-RES 18.6 µM | SF-295 22.5 µM | SF-539 28.4 µM | MDA-MB-231 53 µM | A549 54.3 µM | U-251 41 µM | SNB-19 26 µM | HT-29 28.1 µM | NCI-H522 36.9 µM | RXF 393 21.1 µM | SK-MEL-28 31.8 µM | SR 33.6 µM | A498 50.8 µM | DU-145 92 µM | Hs-578T 32.7 µM | HOP-92 26.9 µM | HCT-116 35.1 µM | MOLT-4 25.8 µM

Nc1ncc(Sc2ccccc2C(=O)O)s1
inactive: NCI/ADR-RES > 100 µM | SF-295 > 100 µM | SF-539 > 100 µM | MDA-MB-231 > 100 µM | A549 > 100 µM | U-251 > 100 µM | SNB-19 > 100 µM | HT-29 > 100 µM | RXF 393 > 100 µM | SK-MEL-28 > 100 µM | SR > 100 µM | A498 > 100 µM | NCI-H460 > 100 µM | DU-145 > 100 µM | Hs-578T > 100 µM | HOP-92 > 100 µM | HCT-116 > 100 µM | MOLT-4 > 100 µM

Cc1ccc(C2(c3ccc(C)c(O)c3C)CCN(C)CC2)c(C)c1O
inactive: NCI/ADR-RES > 100 µM | SF-295 33.3 µM | MDA-MB-231 34.8 µM | A549 > 100 µM | U-251 39.4 µM | SNB-19 62.4 µM | HT-29 45.1 µM | NCI-H522 > 100 µM | RXF 393 78.5 µM | SK-MEL-28 30.4 µM | SR 49.8 µM | A498 41.7 µM | NCI-H460 15.7 µM | DU-145 > 100 µM | Hs-578T > 100 µM | HOP-92 > 100 µM | HCT-116 38.5 µM | MOLT-4 > 100 µM
